Test system: MDA-MB-231
Assay: Intracellular ROS analysis with DCF-DA (FACS)
Type: cell-based
Conditions: for Increase in ROS versus DMSO: 1 hour, DCF-DA
From the text: We examined the status of intracellular ROS induced by 2a. For this experiment, we employed the used 2′,7′-dichlorofluoresceindiacetate (DCF-DA),[103] a fluorogenic dye with an excitation/emission wavelength of 495/525 nm. DCF-DA enters into the cell and is subsequently deacetylated by cellular esterases where it is then oxidized by ROS to produce a fluorescent compound that can detected with flow cytometry (FACS) using the FITC channel.[104]
To quantify the amount of ROS produced, we subjected MDA-MB-231 cells to 2a at 10 and 20 μM to assess concentration dependence. Within 1 hour of treatment, we observed a 1.3× increase in ROS in cells treated with 2aversus DMSO (Fig. 11). At twice the concentration, 20 μM, we observed a 1.5× increase in ROS. […] When compared to the H2O2 control, 2a produces similar ROS levels in MDA-MB-231 cells (Fig. 11). […] To further solidify that the DCF-DA fluorescence is from ROS and not other reactive species such as RNS, we pre-treated cells with 10 mM N-acetyl cysteine for 2 h. NAC is a natural ROS scavenger and a key component in the formation of glutathione (GSH), which is a powerful antioxidant.[105,106] After pre-treatment, the cells were subjected to the same concentration of 2a (10 μM) for 1 h.
100 µL of dye into 900 µL of DMEM. Note: the working solution of JC-1 should always be prepared fresh and not stored for long-term use. Then, 100 µL/mL of DMEM were added to the cells and incubated at 37 °C for 20 minutes. Prior to imaging, the media was removed and replaced with room temperature PBS (2 mL). The cells were then visualized using confocal microscopy on a Nikon A1R Inverted Confocal Microscope. […]
For the wells that were pre-treated with NAC, a stock solution of NAC in DMEM was added at a concentration of 10 mM for 2 h prior to the addition of 2a. […] The cells were then analyzed using FACS with the FITC channel […]
Mitochondrial Metabolism Analysis with Seahorse XF96 Analysis. […] The optimum conditions were determined to be 30,000 cells/well and an FCCP injection concentration of 0.6 µM. […]

With C[N+](C)=C1[S][Au-2]2([S]1)[c]1ccccc1Cc1cccc[n+]12.F[P-](F)(F)(F)(F)F (stereo not drawn) [2a] the “Increase in ROS versus DMSO” value (MDA-MB-231, 10 μM) was 1.3 ×, the “Increase in ROS versus DMSO” value (MDA-MB-231, 20 μM) was 1.5 × and the “ROS levels after NAC pre-treatment” value (MDA-MB-231, 10 mM NAC 2 h, then 10 μM for 1 h) was “no increase in ROS levels”.

Source: article PMC8162438, “Cancer cell-selective modulation of mitochondrial respiration and metabolism by potent organogold(III) dithiocarbamates” (Chemical Science, 2020)
